Laboratory results: patent US12187699B2, “GSPT1 compounds and methods of use of the novel compounds” (BRISTOL-MYERS SQUIBB COMPANY, priority 2022, dated 2025)

Molecular target: T1, ePL-tagged GSPT1 (Homo sapiens, UniProt P15170+Q96SW2)
T1 construct: expressed in transfected cells; host or cells: DF15 multiple myeloma cells
Experiment: GSPT1 DiscoverX Degradation Assay
Format: cell-based
Details: DF15 multiple myeloma cells expressing ePL-tagged GSPT1; twenty hours; minimum of percent of control curve (Ataluren control Y constant=0, DMSO control = Y max)
Experimental: GSPT1 DiscoverX Degradation Assay.
Compounds were dispensed by an acoustic dispenser (ATS Acoustic Transfer System from EDC Biosystems) into a 384-well in a 10 pt dose response curve using 3 fold dilutions starting at 10 uM and going down to 0.0005 uM in DMSO. A DMSO control is added to the assay. […] Assay plates were incubated at 37° C. with 5% CO2 for twenty hours. After incubation, 25 μl of the InCELL Hunter™ Detection Reagent Working Solution (DiscoverX, cat #96-0002, Fremont, CA) was added to each well and incubated at room temperature for 30 minutes protected from light. After 30 minutes, luminescence was read on a PHERAstar luminometer (Cary, NC).
The minimum Y is reference to the Y constant. In the GSPT1 degradation assay, we use Ataluren® (luciferase inhibitor) as the control with a Y constant=0. The maximum limit is the Y max DMSO control. All percent of control GSPT1 degradation curves were processed and evaluated using Activity Base (IDBS).

T1 sequence (P15170 whole entry): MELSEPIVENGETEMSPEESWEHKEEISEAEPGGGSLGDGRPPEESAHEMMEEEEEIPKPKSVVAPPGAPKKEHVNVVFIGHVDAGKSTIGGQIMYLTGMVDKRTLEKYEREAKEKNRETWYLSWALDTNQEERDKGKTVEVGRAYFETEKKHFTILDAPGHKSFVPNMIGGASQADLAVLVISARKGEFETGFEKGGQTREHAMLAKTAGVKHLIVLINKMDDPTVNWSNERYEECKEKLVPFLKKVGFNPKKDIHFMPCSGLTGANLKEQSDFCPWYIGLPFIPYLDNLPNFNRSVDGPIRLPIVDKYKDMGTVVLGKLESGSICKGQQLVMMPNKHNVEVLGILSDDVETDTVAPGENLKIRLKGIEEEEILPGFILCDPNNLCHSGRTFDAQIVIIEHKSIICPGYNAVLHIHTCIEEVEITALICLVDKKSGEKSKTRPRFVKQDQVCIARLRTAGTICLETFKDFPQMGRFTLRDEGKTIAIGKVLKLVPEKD
T1 sequence (Q96SW2 whole entry): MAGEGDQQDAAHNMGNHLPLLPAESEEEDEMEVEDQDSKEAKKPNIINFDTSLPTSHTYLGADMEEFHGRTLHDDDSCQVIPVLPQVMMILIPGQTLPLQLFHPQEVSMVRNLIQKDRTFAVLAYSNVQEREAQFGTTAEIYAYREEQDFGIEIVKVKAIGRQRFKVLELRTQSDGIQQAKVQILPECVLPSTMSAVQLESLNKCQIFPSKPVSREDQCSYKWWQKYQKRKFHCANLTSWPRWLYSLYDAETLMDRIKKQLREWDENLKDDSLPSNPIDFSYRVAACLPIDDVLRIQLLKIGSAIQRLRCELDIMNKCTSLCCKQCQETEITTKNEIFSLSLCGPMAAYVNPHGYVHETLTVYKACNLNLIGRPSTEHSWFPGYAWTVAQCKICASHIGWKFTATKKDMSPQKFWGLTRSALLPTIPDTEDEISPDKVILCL
T1 sequence (Q16531 whole entry partner): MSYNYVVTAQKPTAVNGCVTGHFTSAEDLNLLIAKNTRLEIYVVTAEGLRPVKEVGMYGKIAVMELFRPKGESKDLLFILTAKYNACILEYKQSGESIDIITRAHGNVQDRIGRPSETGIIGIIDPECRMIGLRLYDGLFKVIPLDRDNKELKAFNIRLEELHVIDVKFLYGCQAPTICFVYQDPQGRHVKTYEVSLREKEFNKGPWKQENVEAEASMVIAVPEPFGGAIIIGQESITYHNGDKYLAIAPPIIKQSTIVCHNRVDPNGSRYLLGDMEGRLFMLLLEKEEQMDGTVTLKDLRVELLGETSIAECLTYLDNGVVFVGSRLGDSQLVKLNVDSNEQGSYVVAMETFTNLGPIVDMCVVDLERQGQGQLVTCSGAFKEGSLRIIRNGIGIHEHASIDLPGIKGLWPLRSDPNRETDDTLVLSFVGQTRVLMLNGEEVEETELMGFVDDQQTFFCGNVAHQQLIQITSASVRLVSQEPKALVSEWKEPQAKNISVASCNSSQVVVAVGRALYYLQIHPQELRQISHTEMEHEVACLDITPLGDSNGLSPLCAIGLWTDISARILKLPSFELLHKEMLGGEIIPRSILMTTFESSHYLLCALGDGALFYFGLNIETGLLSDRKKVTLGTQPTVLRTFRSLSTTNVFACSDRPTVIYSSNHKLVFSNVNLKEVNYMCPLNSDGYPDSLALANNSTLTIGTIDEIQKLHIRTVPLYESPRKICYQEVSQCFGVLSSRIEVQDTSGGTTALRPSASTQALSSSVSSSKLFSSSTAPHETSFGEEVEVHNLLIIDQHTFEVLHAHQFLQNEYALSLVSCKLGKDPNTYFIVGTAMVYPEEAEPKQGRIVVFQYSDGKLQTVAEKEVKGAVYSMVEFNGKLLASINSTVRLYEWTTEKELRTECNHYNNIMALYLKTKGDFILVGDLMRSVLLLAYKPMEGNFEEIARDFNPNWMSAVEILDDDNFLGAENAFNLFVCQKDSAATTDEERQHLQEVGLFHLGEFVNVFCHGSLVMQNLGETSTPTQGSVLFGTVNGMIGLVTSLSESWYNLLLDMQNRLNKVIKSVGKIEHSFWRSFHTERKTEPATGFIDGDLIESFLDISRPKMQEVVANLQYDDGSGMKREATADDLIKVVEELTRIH

SMILES	GSPT1 Degradation Ymin
Nc1ccccc1COc1ccc(NC(=O)NCc2ccc3c(c2)CN(C2CCC(=O)NC2=O)C3=O)cc1 (centres unmarked) [Example 28, 1-(4-((2-aminobenzyl)oxy)phenyl)-3-((2-(2,6-dioxopiperidin-3-yl)-1-oxoisoindolin-5-yl)methyl)urea]	10.20
NCc1ccc(COc2ccc(NC(=O)NCc3ccc4c(c3)CN(C3CCC(=O)NC3=O)C4=O)cc2Cl)cc1 (centres unmarked) [Example 29, 1-(4-((4-(aminomethyl)benzyl)oxy)-3-chlorophenyl)-3-((2-(2,6-dioxopiperidin-3-yl)-1-oxoisoindolin-5-yl)methyl)urea]	16.88
CC(C)c1cc(CN)ccc1COc1ccc(NC(=O)NCc2ccc3c(c2)CN(C2CCC(=O)NC2=O)C3=O)cc1 (centres unmarked) [Example 30, 1-(4-{[4-(aminomethyl)-2-i-propylphenyl]methoxy}phenyl)-3-{[2-(2,6-dioxopiperidin-3-yl)-1-oxo-2,3-dihydro-1H-isoindol-5-yl]methyl}urea]	10.86

Results, then the compound that gave them:

GSPT1 Degradation Ymin	SMILES
7.07	NCc1ccc(COc2ccc(NC(=O)NCc3ccc4c(c3)CN(C3CCC(=O)NC3=O)C4=O)cc2)c(OC(F)F)c1 (centres unmarked) [Example 31, 1-(4-{[4-(aminomethyl)-2-diflouromethoxyphenyl]methoxy}phenyl)-3-{[2-(2,6-dioxopiperidin-3-yl)-1-oxo-2,3-dihydro-1H-isoindol-5-yl]methyl}urea]
22.76	C[C@]1(N2Cc3cc(CNC(=O)Nc4ccc(OCc5ccc(CN)cc5)cc4)ccc3C2=O)CCC(=O)NC1=O [Example 32, 1-(4-{[4-(aminomethyl)phenyl]methoxy}phenyl)-3-({2-[(3S)-3-methyl-2,6-dioxopiperidin-3-yl]-1-oxo-2,3-dihydro-1H-isoindol-5-yl}methyl)urea]
60.95	C[C@@]1(N2Cc3cc(CNC(=O)Nc4ccc(OCc5ccc(CN)cc5)cc4)ccc3C2=O)CCC(=O)NC1=O [Example 33, 1-(4-{[4-(aminomethyl)phenyl]methoxy}phenyl)-3-({2-[(3R)-3-methyl-2,6-dioxopiperidin-3-yl]-1-oxo-2,3-dihydro-1H-isoindol-5-yl}methyl)urea]
7.47	NC[C@H]1CC[C@H](COc2ccc(NC(=O)NCc3ccc4c(c3)CN(C3CCC(=O)NC3=O)C4=O)cc2)CC1 (some centres unmarked) [Example 34, 3-{[2-(2,6-dioxopiperidin-3-yl)-1-oxo-2,3-dihydro-1H-isoindol-5-yl]methyl}-1-(4-{[(1r,4r)-4-(aminomethyl)cyclohexyl]methoxy}phenyl)urea]
17.59	NCc1ccc(CO[C@H]2CC[C@H](NC(=O)NCc3ccc4c(c3)CN(C3CCC(=O)NC3=O)C4=O)CC2)cc1 (some centres unmarked) [Example 35, 3-{[2-(2,6-dioxopiperidin-3-yl)-1-oxo-2,3-dihydro-1H-isoindol-5-yl]methyl}-1-[(1r,4r)-4-{[4-(aminomethyl)phenyl]methoxy}cyclohexyl]urea]
